Key:
[1] = Pharmacokinetic test in mice; format: in vivo; settings: ICR mice, oral administration (1 mg/kg), plasma
Protocol: An appropriate amount of the test compound was precisely weighed and formulated into a 0.1 mg/mL solution with 30% DMSO and 30% HP-β-CD for intravenous injection, and the test compound was formulated into a 0.1 mg/mL solution with 0.5% MC for intragastric administration. Healthy adult male ICR mice were fasted overnight and then given the test compound via intravenous injection (0.5 mg/kg) and intragastric administration (1 mg/kg). Blood (anticoagulated with heparin sodium) was collected from the forelimb vein at different time points (0.083 h, 0.25 h, 0.5 h, 1 h, 2 h, 4 h, 8 h and 24 h) after administration. The blood samples were separated by centrifugation at 6800 g at 4° C. for 10 min to obtain plasma, and all the samples were stored at −80° C. for later testing. The concentration of the prototype drug in plasma was determined by an LC-MS/MS method, and the main pharmacokinetic parameters were calculated using Phoenix WinNonlin7.0.

[2] = tested on: monolayer MDCK-MDR1 cells; test: Bidirectional permeability evaluation with MDCK-MDR1 cell model; format: in vitro ADME; settings: 1 μM test compound, 37° C., 2 h
Protocol: In this experiment, monolayer MDCK-MDR1 cells were used and incubated in a 96-well Transwell plate. A transport buffer containing 1 μM test compound was added to an appropriate administration end well on the apical or basal side, and a DMSO-containing transport buffer was added to an appropriate receiving end well. After incubation at 37° C. for 2 h, the cell plate was removed, the samples (50 μL each) were collected from the top and bottom ends and transferred to a new 96-well plate, and the protein was precipitated by subsequently adding acetonitrile. The samples were analyzed using LC-MS/MS and the concentration of the test compound was determined. The concentration data were used to calculate the apparent permeability coefficients of the transport from the apical side to the basal side and from the basal side to the apical side of the monolayer cells so as to calculate the efflux rate. The integrity of the monolayer cells was assessed by the leakage of Lucifer Yellow after 2 h of incubation.

[3] = tested on: MDA-MB-436 cells; test: MDA-MB-436 cell proliferation inhibition experiment; format: cell-based; settings: Homo sapiens, 168 h, 7 d, Celltiter Glo
Protocol: Human breast cancer cell line MDA-MB-436 (supplier: ATCC, Cat #HTB-130) was cultured in an L15 medium containing 10% FBS and 1% penicillin-streptomycin solution at 37° C. and 5% CO2. By means of cell counting, 400 MDA-MB-436 cells were seeded into each well of a 384-well plate and cultured overnight. […] Moreover, blank control wells containing 0.1% DMSO were set. The cells were cultured at 37° C. and 5% CO2 for 7 d, a Celltiter Glo assay kit detection solution was then added, and the chemiluminescence values were determined using a microplate reader. The IC50 value was calculated using GraphPad Prism 8 software.

[4] = tested on: DLD-1 BRCA2−/− cells; test: DLD-1 BRCA2−/− cell proliferation inhibition experiment; format: cell-based; settings: Homo sapiens, 168 h, 7 d, CellTiter-Glo
Protocol: 3.1 DLD-1 BRCA2^−/− Cell Proliferation Inhibition Experiment Epithelial cell line DLD-1 BRCA2^−/− from human colorectal adenocarcinoma (Horizon Discovery Ltd., Cat No.: HD105-007) was cultured in an RPMI-1640 medium containing 10% FBS, 1% penicillin-streptomycin solution, 1% L-G and 0.1 mg/mL hygromycin at 37° C. and 5% CO2. By means of cell counting, 1000 DLD-1 BRCA2^−/− cells were seeded into each well of a 96-well plate and cultured overnight. Test compounds (2-fold gradient dilution, starting at the highest dose: 10 μM, a total of 9 gradient concentrations) were added the next day. Moreover, blank control wells containing DMSO at the same concentration were set. The cells were cultured at 37° C. and 5% CO2 for 7 d, CellTiter-Glo® Reagent was then added, and the chemiluminescence values were determined using a microplate reader. The IC50 value was calculated using GraphPad Prism 8 software.

Row | SMILES | IC50 [3] | IC50 [4] | also measured
1 | CCc1cc2ncc(CN3CCN(c4ccc(C(=O)NC)nc4)CC3)cc2[nH]c1=O [Comparative example 1] | – | – | AUC0-t [1]: 47560 ng·h/mL; Cmax [1]: 5410 ng/mL; T1/2 [1]: 6.25 h; MDCK-MDRII Papp (A-B) (10−6, cm/s) ([2]; apical to basal): 3.38 10−6, cm/s; MDCK-MDRII Papp (B-A) (10−6, cm/s) ([2]; basal to apical): 43.78 10−6, cm/s
2 | CCc1cc2ncc(CN3CCN(c4ccc(C#N)cc4F)CC3)cc2[nH]c1=O [Compound 1, 4-(4-((7-ethyl-6-oxo-5,6-dihydro-1,5-naphthyridin-3-yl)methyl)piperazin-1-yl)-3-fluorobenzonitrile] | 12.2 nM | 1.7 nM | –
3 | CCc1cc2ncc(CN3CCN(c4ccc(F)cn4)CC3)cc2[nH]c1=O [Compound 3, 3-ethyl-7-((4-(5-fluoropyridin-2-yl)piperazin-1-yl)methyl)-1,5-naphthyridin-2(1H)-one] | 11.1 nM | 3.3 nM | –
4 | CCc1cc2ncc(CN3CCN(c4ccc(C#N)nc4)CC3)cc2[nH]c1=O [Compound 4, 5-(4-((7-ethyl-6-oxo-5,6-dihydro-1,5-naphthyridin-3-yl)methyl)piperazin-1-yl)picolinonitrile] | – | 5.4 nM | –
5 | CCc1cc2ncc(CN3CCN(c4ccc(Cl)cn4)CC3)cc2[nH]c1=O [Compound 10, 7-((4-(5-chloropyridin-2-yl)piperazin-1-yl)methyl)-3-ethyl-1,5-naphthyridin-2(1H)-one] | 12.1 nM | – | –
6 | CCc1cc2ncc(CN3CCN(c4ccc(-c5cnn(C)c5)cn4)CC3)cc2[nH]c1=O [Compound 21, 3-ethyl-7-((4-(5-(1-methyl-1H-pyrazol-4-yl)pyridin-2-yl)piperazin-1-yl)methyl)-1,5-naphthyridin-2(1H)-one] | 27.8 nM | – | –
7 | CCc1cc2ncc(CN3CCN(c4ccc(C(F)F)cn4)CC3)cc2[nH]c1=O [Compound 24, 7-((4-(5-(difluoromethyl)pyridin-2-yl)piperazin-1-yl)methyl)-3-ethyl-1,5-naphthyridin-2(1H)-one] | 8.3 nM | – | –

Source: patent publication US20250289800A1, “Selective Parp1 Inhibitor And Application Thereof” (Kangbaida (Sichuan) Biotechnology Co., Ltd., priority 2021, published 2025)
